Reference: patent US20180051017A1, “AGENT FOR TREATMENT OF SCHIZOPHRENIA” (Sumitomo Dainippon Pharma Co., Ltd., priority 2002, published 2018)
Counter-ions that a name gives are not always drawn.

Tested on: patients with schizophrenia in the acute exacerbation phase
Experiment: First stage phase II clinical trial: safety (adverse events, serious adverse events, side effects, ECG, laboratory tests)
Format: in vivo, human
Method: According to the procedures as shown in Table 1 as described below, the placebo-controlled double blind experiment was done on 149 patients with schizophrenia in the acute exacerbation phase at 15 facilities in USA. The efficacy and safeness were studied when SM-13496 at a dose of 40 mg or 120 mg, or a placebo was orally administered once a day for 6 weeks after placebo washout.

[1] = 120 mg orally once a day for 6 weeks, 49 subjects

O=C1[C@@H]2[C@@H]3CC[C@@H](C3)[C@@H]2C(=O)N1C[C@@H]1CCCC[C@H]1CN1CCN(c2nsc3ccccc23)CC1 [SM-13496, (1R,2S,3R,4S)-N-[(1R,2R)-2-[4-(1,2-benzoisothiazol-3-yl)-1-piperazinyl-methyl]-1-cyclohexylmethyl]-2,3-bicyclo[2.2.1]heptanedicarboximide hydrochloride]
Number of subjects showing serious adverse events (%) [1]: 3 (6) number of subjects (%)
Number of subjects who drop out from the trial due to adverse events (%) [1]: 6 (12) number of subjects (%)
Occurrence of adverse event: Akathisia (120 mg, 6 weeks, 49 subjects): 7 (14) number of subjects (%)
Occurrence of adverse event: Digestive disturbance (120 mg, 6 weeks, 49 subjects): 2 (4) number of subjects (%)
Occurrence of adverse event: Drowsiness (120 mg, 6 weeks, 49 subjects): 5 (10) number of subjects (%)
Occurrence of adverse event: Exacerbation of schizophrenia (120 mg, 6 weeks, 49 subjects): 1 (2) number of subjects (%)
Occurrence of adverse event: Free-floating vertigo (excluding rotatory vertigo) (120 mg, 6 weeks, 49 subjects): 5 (10) number of subjects (%)
Occurrence of adverse event: Headache (120 mg, 6 weeks, 49 subjects): 3 (6) number of subjects (%)
Occurrence of adverse event: Nausea (120 mg, 6 weeks, 49 subjects): 11 (22) number of subjects (%)
Occurrence of adverse event: Suppression (120 mg, 6 weeks, 49 subjects): 7 (14) number of subjects (%)
Occurrence of serious adverse event: Exacerbation of paranoia (120 mg, 6 weeks, 49 subjects): 0 (0) number of subjects (%)
Occurrence of serious adverse event: Exacerbation of schizophrenia (120 mg, 6 weeks, 49 subjects): 1 (2) number of subjects (%)
Occurrence of serious adverse event: Paranoid schizophrenia (120 mg, 6 weeks, 49 subjects): 1 (2) number of subjects (%)
Occurrence of serious adverse event: Psychosis aggravated (120 mg, 6 weeks, 49 subjects): 0 (0) number of subjects (%)
Occurrence of side effects (%) (120 mg, 6 weeks, 49 subjects): 35 (71) number of subjects (%)
Serious adverse events: Total (%) (120 mg, 6 weeks, 49 subjects): 2 (4) number of subjects (%)
Side effect: Abdominal pain (Gastroenteric disturbance) (120 mg, 6 weeks, 49 subjects): 0 (0) number of subjects (%)
Side effect: Abnormal electrocardiogram (Laboratory assay) (120 mg, 6 weeks, 49 subjects): 0 (0) number of subjects (%)
Side effect: Abnormal liver function tests (Laboratory assay) (120 mg, 6 weeks, 49 subjects): 1 (2) number of subjects (%)
Side effect: Agitation (Mental disturbance) (120 mg, 6 weeks, 49 subjects): 1 (2) number of subjects (%)
Side effect: Agitation aggravated (Mental disturbance) (120 mg, 6 weeks, 49 subjects): 2 (4) number of subjects (%)
Side effect: Akathisia (Nervous system disorder) (120 mg, 6 weeks, 49 subjects): 7 (14) number of subjects (%)
Side effect: Akathisia aggravated (Nervous system disorder) (120 mg, 6 weeks, 49 subjects): 0 (0) number of subjects (%)
Side effect: Anarthria (Nervous system disorder) (120 mg, 6 weeks, 49 subjects): 1 (2) number of subjects (%)
Side effect: Anorexia (Metabolic disturbances and nutritional disturbance) (120 mg, 6 weeks, 49 subjects): 0 (0) number of subjects (%)
Side effect: Anxiety aggravated (Mental disturbance) (120 mg, 6 weeks, 49 subjects): 0 (0) number of subjects (%)
Side effect: Articular rigidity (Musculoskeletal system and connective tissue disorder) (120 mg, 6 weeks, 49 subjects): 0 (0) number of subjects (%)
Side effect: Blurred vision (Ocular disturbance) (120 mg, 6 weeks, 49 subjects): 1 (2) number of subjects (%)
Side effect: Breathing difficulty (Disturbance in respiratory organ, chest and mediastinum) (120 mg, 6 weeks, 49 subjects): 1 (2) number of subjects (%)
Side effect: Cervical rigidity (Musculoskeletal system and connective tissue disorder) (120 mg, 6 weeks, 49 subjects): 0 (0) number of subjects (%)
Side effect: Cogwheel rigidity (Nervous system disorder) (120 mg, 6 weeks, 49 subjects): 1 (2) number of subjects (%)
Side effect: Constipation (Gastroenteric disturbance) (120 mg, 6 weeks, 49 subjects): 0 (0) number of subjects (%)
Side effect: Decrease in appetite (Metabolic disturbances and nutritional disturbance) (120 mg, 6 weeks, 49 subjects): 1 (2) number of subjects (%)
Side effect: Diarrhea (Gastroenteric disturbance) (120 mg, 6 weeks, 49 subjects): 0 (0) number of subjects (%)
Side effect: Drowsiness (Nervous system disorder) (120 mg, 6 weeks, 49 subjects): 5 (10) number of subjects (%)
Side effect: Dry eye (Ocular disturbance) (120 mg, 6 weeks, 49 subjects): 0 (0) number of subjects (%)
Side effect: Dry mouth (Gastroenteric disturbance) (120 mg, 6 weeks, 49 subjects): 0 (0) number of subjects (%)
Side effect: Dyspepsia (Gastroenteric disturbance) (120 mg, 6 weeks, 49 subjects): 2 (4) number of subjects (%)
Side effect: Dystonic reaction (Nervous system disorder) (120 mg, 6 weeks, 49 subjects): 0 (0) number of subjects (%)
Side effect: Exacerbation of insomnia (Mental disturbance) (120 mg, 6 weeks, 49 subjects): 1 (2) number of subjects (%)
Side effect: External otitis (Infection and parasitosis) (120 mg, 6 weeks, 49 subjects): 0 (0) number of subjects (%)
Side effect: Extrapyramidal disease (Nervous system disorder) (120 mg, 6 weeks, 49 subjects): 3 (6) number of subjects (%)
Side effect: Fatigue (Total disability and local condition) (120 mg, 6 weeks, 49 subjects): 1 (2) number of subjects (%)
Side effect: Fatigue aggravated (Total disability and local condition) (120 mg, 6 weeks, 49 subjects): 0 (0) number of subjects (%)
Side effect: Flatulence (Gastroenteric disturbance) (120 mg, 6 weeks, 49 subjects): 0 (0) number of subjects (%)
Side effect: Flushing (Vascular diseases) (120 mg, 6 weeks, 49 subjects): 0 (0) number of subjects (%)
Side effect: Free-floating vertigo (excluding rotatory vertigo) (Nervous system disorder) (120 mg, 6 weeks, 49 subjects): 5 (10) number of subjects (%)
Side effect: Frequent urination (Renal Injury and urinary disorder) (120 mg, 6 weeks, 49 subjects): 0 (0) number of subjects (%)
Side effect: Glossoplegia (Nervous system disorder) (120 mg, 6 weeks, 49 subjects): 0 (0) number of subjects (%)
Side effect: Headache (Nervous system disorder) (120 mg, 6 weeks, 49 subjects): 1 (2) number of subjects (%)
Side effect: Heavy feeling (Musculoskeletal system and connective tissue disorder) (120 mg, 6 weeks, 49 subjects): 0 (0) number of subjects (%)
Side effect: Hot flashes (Vascular diseases) (120 mg, 6 weeks, 49 subjects): 1 (2) number of subjects (%)
Side effect: Hot sensation (Total disability and local condition) (120 mg, 6 weeks, 49 subjects): 0 (0) number of subjects (%)
Side effect: Increase in creatine phosphokinase level in the blood (Laboratory assay) (120 mg, 6 weeks, 49 subjects): 0 (0) number of subjects (%)
Side effect: Increase in prolactin level in the blood (Laboratory assay) (120 mg, 6 weeks, 49 subjects): 1(2) number of subjects (%)
Side effect: Increase in total protein (Laboratory assay) (120 mg, 6 weeks, 49 subjects): 0 (0) number of subjects (%)
Side effect: Insomnia (Mental disturbance) (120 mg, 6 weeks, 49 subjects): 1 (2) number of subjects (%)
Side effect: Laryngopharynx pain (Disturbance in respiratory organ, chest and mediastinum) (120 mg, 6 weeks, 49 subjects): 0 (0) number of subjects (%)
Side effect: Loose stools (Gastroenteric disturbance) (120 mg, 6 weeks, 49 subjects): 1 (2) number of subjects (%)
Side effect: Melalgia (Musculoskeletal system and connective tissue disorder) (120 mg, 6 weeks, 49 subjects): 1 (2) number of subjects (%)
Side effect: Muscle stiffness (Musculoskeletal system and connective tissue disorder) (120 mg, 6 weeks, 49 subjects): 1 (2) number of subjects (%)
Side effect: Myalgic pain (Musculoskeletal system and connective tissue disorder) (120 mg, 6 weeks, 49 subjects): 1 (2) number of subjects (%)
Side effect: Nausea (Gastroenteric disturbance) (120 mg, 6 weeks, 49 subjects): 9 (18) number of subjects (%)
Side effect: Nightmare (Mental disturbance) (120 mg, 6 weeks, 49 subjects): 1 (2) number of subjects (%)
Side effect: Palpitation (Heart problems) (120 mg, 6 weeks, 49 subjects): 1 (2) number of subjects (%)
Side effect: Parotiditis (Infection and parasitosis) (120 mg, 6 weeks, 49 subjects): 0 (0) number of subjects (%)
Side effect: Polyuria (Renal Injury and urinary disorder) (120 mg, 6 weeks, 49 subjects): 0 (0) number of subjects (%)
Side effect: Pruritus (Disturbance in Skin and Hypodermis) (120 mg, 6 weeks, 49 subjects): 0 (0) number of subjects (%)
Side effect: Psychosis aggravated (Mental disturbance) (120 mg, 6 weeks, 49 subjects): 2 (4) number of subjects (%)
Side effect: Restlessness (Mental disturbance) (120 mg, 6 weeks, 49 subjects): 1 (2) number of subjects (%)
Side effect: Salivary hypersecretion (Gastroenteric disturbance) (120 mg, 6 weeks, 49 subjects): 0 (0) number of subjects (%)
Side effect: Sinus tachycardia (Heart problems) (120 mg, 6 weeks, 49 subjects): 1 (2) number of subjects (%)
Side effect: Sleepiness (Total disability and local condition) (120 mg, 6 weeks, 49 subjects): 2 (4) number of subjects (%)
Side effect: Suppression (Nervous system disorder) (120 mg, 6 weeks, 49 subjects): 7 (14) number of subjects (%)
Side effect: Tinea pedis (Infection and parasitosis) (120 mg, 6 weeks, 49 subjects): 1 (2) number of subjects (%)
Side effect: Tongue disturbance (Gastroenteric disturbance) (120 mg, 6 weeks, 49 subjects): 0 (0) number of subjects (%)
Side effect: Tremor (Nervous system disorder) (120 mg, 6 weeks, 49 subjects): 3 (6) number of subjects (%)
Side effect: Trismus (Nervous system disorder) (120 mg, 6 weeks, 49 subjects): 1 (2) number of subjects (%)
Side effect: Urinary tract infection (Infection and parasitosis) (120 mg, 6 weeks, 49 subjects): 0 (0) number of subjects (%)
Side effect: Vomiting (Gastroenteric disturbance) (120 mg, 6 weeks, 49 subjects): 3 (6) number of subjects (%)
Side effect: Weight loss (Laboratory assay) (120 mg, 6 weeks, 49 subjects): 2 (4) number of subjects (%)
Akathisia (adverse event) (120 mg-treated group): 14%
Digestive disturbance compared to the placebo-treated group (120 mg-treated group): less observed
Exacerbation of schizophrenia (adverse event) (120 mg-treated group): 2%
Nausea compared to the other groups (120 mg-treated group): more observed
Ratio of the subjects showing suppression (120 mg-treated group): 14%
Serious adverse events (120 mg-treated group): 2 cases
Change in body temperature, respiration rate, funduscopic examination and slit-lamp microscopy (SM-13496-treated groups): no clinically significant change
Occurrence of dystonic reaction (SM-13496-treated groups): less than 4%
Prolactin level in the blood (SM-13496-treated groups): moderate increase
Number of subjects who dropped out from the trial due to the adverse events compared to placebo (both groups treated by two doses): higher
Occurrence of the adverse events compared to placebo (groups treated by SM-13496): the same as that in the placebo-treated group
